# Measurements from article PMC9519446, “Discovery of an Orally Active Benzoxaborole Prodrug Effective in the Treatment of Chagas Disease in Non-human Primates” (Nature microbiology, 2022).
# Several values for one entry are separate records, joined by “and”; a condition that tells them apart may be missing. Identical values can stand only once. Like-named read-outs stand apart in the source and are kept apart here.
# What was measured:
# [1] = test system: T. cruzi intracellular amastigotes; test: In vitro anti-T. cruzi intracellular amastigote growth inhibition assay (tdTomato fluorescence over 72 hours, Vero cells); type: cell-based, Trypanosoma cruzi; conditions: for activity at 0.00407 µM: [uM] -2.39 [sic]
# Method: (§1) The in vitro anti-T. cruzi amastiogote activity assay was performed and optimized based on the protocol described previously. The change in tdTomato fluorescence intensity was determined as a measurement of growth over 72 hours of culture. For assaying drug effects on extracellular amastigotes, trypomastigotes were collected from infected Vero cell cultures and converted in acidic media as previously described. Amastigotes (50,000/well) were incubated with 2-fold serial dilutions of compounds for 48 hours. The ATP production was used as an indication of growth in this case, and was measured by ATPlite Luminescence ATP Detection Assay System (PerkinElmer). Both fluorescence and luminescence were read using a BioTek Synergy Hybrid Multi-Mode reader equipped with the software Gene5 v 2.0 (BioTek). The dose-response curve was generated by […] analysis with GraphPad Prism v9.4.0 (GraphPad Software).
# [2] = test system: T. cruzi extracellular amastigotes; test: Extracellular amastigote assay (ATPlite luminescence, 48 hours); type: cell-based; conditions: Trypanosoma cruzi, extracellular amastigotes
# Method: as §1
# [3] = test system: TcCBP KO T. cruzi intracellular amastigotes; test: microbe, parasite or virus in culture; type: cell-based; conditions: Trypanosoma cruzi, read-out: TcCBP KO IC50
# Method: as §1
# The CBPs knockout was produced using ribonucleoprotein (RNP) complexes as previously described. Briefly, Brazil tdTomato strain epimastigotes were electroporated with RNP complexes containing SaCas9 and an sgRNA targeting CBP gene TcBrA4_0048170, plus a repair template containing stop codons in all three reading frames and the M13 sequence for use as a PCR anchor. The sgRNA targeted the ‘[…]” sequence. After 2 days of recovery, single-cell clones were derived by depositing epimastigotes into a 96-well plate at a density of 0.5 cell/well by using a MoFlo Astrios EQ cell sorter (Beckman Coulter). DNA isolation was performed for clones, and primer pair of 5’-[…]-3’ and 5’- […] -3’ was used for amplifying the wild type allele, while primer pair of M13-F: 5’- […] -3’ and 5’- […] -3’ was used for amplifying the mutant allele.
# [4] = test system: CPSF3-OE T. cruzi intracellular amastigotes; test: microbe, parasite or virus in culture; type: cell-based; conditions: Trypanosoma cruzi; for IC50: read-out: CPSF3-OE IC50, intracellular amastigotes; for activity at 0.1 µM / activity at 0.4 µM / activity at 0.7 µM / activity at 1 µM / activity at 1.3 µM / activity at 1.6 µM: 72 h, read-out: % of maximum, CPSF3-OE
# Method: as §1
# The CPSF3 gene was amplified using primers ‘[…]’ and ‘[…]’, and integrated into the pTrex vector [47] by NEBuilder HiFi DNA assembly (New England Biolabs). The construct of pTrex-CPSF was then transfected into Brazil tdTomato epimastigotes and selected by 60ug/ml blasticidin.
# To confirm the CPSF overexpression in the selected transfectants, RNA was extracted as previously described and converted to cDNA using SuperScript Reverse Transcriptase (Invitrogen). Quantitative PCR reactions were performed in triplicate on the C1000 Touch Bio-Rad CFX96 real-time PCR detection system for CPSF using primer sets CPSF-1 (5'-[…]-3' and 5'-[…]-3') and CPSF-2 (5'-[…]-3' and 5'-[…]-3') in both control and CPSF over-expressing parasites, and the expression level was normalized to tubulin which was amplified using primers: ‘[…]’ and ‘[…]’.
# [5] = test system: tdTomato expressing T. cruzi (CL strain); test: Rapid in vivo assay: footpad infection, single oral dose, fluorescence imaging 2 and 4 dpi (proliferation index);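 note: single oral dose of 50 mg/kg given at 2 dpi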; set-up: species or system C57BL/6 mice; conditions: Fig. 3a; individual footpads
# Method: Fluorescent intensity of the feet was measured at 2 dpi before compound administration and at 4 dpi in the Maestro in vivo imaging system equipped with the software Maestro 2.1.0 (CRi) as previously described. The proliferation index was estimated as PI=[(T4d – T2d)/(mUnt4d-mUnt2d)]*100; where T4d and T2d are the fluorescence intensity of the feet of the treated animals at days 4 and 2 post-infection respectively; mUnt4d and mUnt2d are the average fluorescence intensity of the feet of the untreated animals at 4 and 2 dpi respectively.
# [6] = test system: T. cruzi Brazil strain; test: Mouse cure assays (daily oral treatment, immunosuppression, qPCR of skeletal muscle, blood microscopy, hemoculture); type: in vivo, C57BL/6 mice; conditions: individual mice
# Method: Male or female C57BL/6 mice were intraperitoneally infected with 10^4 trypomastigotes of the Brazil strain. Mouse infection was confirmed at 25-30 dpi by detection of CD8^+ T cells specific against the T. cruzi TSKb20 peptide in blood. Compounds resuspended in 1% carboxymethyl cellulose and 0.1% Tween 80, were administered daily by gavage at the specified concentrations. In order to optimally detect persistent infection, immune responses in the mice were suppressed by intraperitoneal injection of four doses of cyclophosphamide every 2-3 days (200 mg/kg/day), beginning one week after the end of therapeutic treatment. At the end of the immunosuppression regimen, peripheral blood was checked under light microscope for parasites and cultured in LDNT media. Mouse skeletal muscle samples were obtained at the end of the immunosuppression and processed for T. cruzi-DNA detection by qPCR as previously described.
# [7] = test system: T. cruzi; conditions: T. cruzi-infected NHPs; cited from earlier work
# [8] = Trypanosoma cruzi, Vero, in vitro, Fig. 1a, Extended Data Fig. 1a, read-out: T. cruzi IC50
# [9] = 48 hours, Fig. 5f, Extended Data Fig. 4d, read-out: IC50 (nM) T. cruzi extra-
# [10] = Trypanosoma cruzi, Vero, intracellular T. cruzi, Fig. 5f, read-out: IC50 (nM) T. cruzi intra-
# [11] = Trypanosoma cruzi, Vero, 72 h, read-out: % of maximum, WT, single replicates
# [12] = Trypanosoma cruzi, Vero, read-out: WT IC50, WT intracellular amastigotes, control of CPSF3-OE comparison
# [13] = Trypanosoma cruzi, Vero, read-out: WT IC50, WT intracellular amastigotes, control of TcCBP KO comparison
smiles,measurement,setting,value
CC(C)[C@H](NC(=O)c1ccc2c(c1)B(O)OC2)C(=O)OCc1ccccc1 [AN10443],IC50,[1]; [8],670 nM
same,IC50,[2]; [9],13 nM
CC(C)[C@H](NC(=O)c1ccc2c(c1F)B(O)OC2)C(=O)OCc1ccccc1 [AN11622],IC50,[1]; [10],> 1250 nM
same,IC50,[2]; [9],37 nM
Cc1c(C(=O)N[C@H](C(=O)OCc2ccccc2)C(C)C)ccc2c1B(O)OC2 [AN11735],IC50,[2]; [9],1.2 nM
"Cc1c(C(=O)NC(C(=O)OCc2ccc(F)cc2)C(C)C)ccc2c1B(O)OC2 (stereo not shown) [AN11736, 4-fluorobenzyll-valinate amide benzoxaborole]",activity at 0.00407 µM,[1]; [11],46%
same,IC50,[1]; [12],3.2 nM
same,IC50,[1]; [13],3.2 nM
same,% of maximum,"[1]; WT, [uM] -1.43 as printed, single replicates",-1% and 1%
same,IC50,[3],618 nM
same,IC50,[4],6.5 nM
CCc1c(C(=O)N[C@H](C(=O)OCc2ccccc2)C(C)C)ccc2c1B(O)OC2 [AN14557],IC50,[1]; [10],37 nM
same,IC50,[2]; [9],1.5 nM
CC(C)C(NC(=O)c1ccc2c(c1C1CC1)B(O)OC2)C(=O)OCc1ccccc1 (stereo not shown) [AN14577],IC50,[1]; [10],> 1250 nM
same,IC50,[2]; [9],240 nM
CC(C)c1c(C(=O)NC(C(=O)OCc2ccccc2)C(C)C)ccc2c1B(O)OC2 (stereo not shown) [AN14630],IC50,[1]; [10],> 1250 nM
same,IC50,[2]; [9],13 nM
Cc1c(C(=O)N[C@H](C(=O)O)C(C)C)ccc2c1B(O)OC2 [AN14667],activity at 0.7 µM,"[1]; Trypanosoma cruzi, Vero, 72 h, read-out: % of maximum, WT, [uM] 0.70, single replicates",43%
same,activity at 1 µM,"[1]; Trypanosoma cruzi, Vero, 72 h, read-out: % of maximum, WT, [uM] 1.00, single replicates",0%
same,activity at 0.7 µM,"[1]; Trypanosoma cruzi, Vero, 72 h, read-out: % of maximum, WT, concentration 0.70 [uM] as printed",43%
same,activity at 0.1 µM,"[1]; Trypanosoma cruzi, Vero, 72 h, read-out: % of maximum, intracellular, [uM] 0.10",86%
same,activity at 0.4 µM,"[1]; Trypanosoma cruzi, Vero, 72 h, read-out: % of maximum, intracellular, [uM] 0.40",66%
same,activity at 0.7 µM,"[1]; Trypanosoma cruzi, Vero, 72 h, read-out: % of maximum, intracellular, [uM] 0.70",43%
same,activity at 1.6 µM,"[1]; Trypanosoma cruzi, Vero, 72 h, read-out: % of maximum, intracellular, [uM] 1.60",0%
same,IC50,[1]; [8],5720 nM
same,IC50,"[1]; Trypanosoma cruzi, Vero, intracellular amastigotes, Fig. 2a, read-out: Intracellular IC50",3600 nM
same,reduced activity relative to ester prodrug,[1]; both intra- and extracellular amastigotes,~ 1000 fold
same,% of maximum,"[1]; intracellular, [uM] 1.60",0%
same,IC50,"[2]; Fig. 2a, read-out: Extracellular IC50",3900 nM
same,activity at 0.1 µM,"[4]; [uM] 0.10, single replicates",97%
same,activity at 0.4 µM,"[4]; [uM] 0.40 as printed, single replicates",102%
same,activity at 0.7 µM,"[4]; [uM] 0.70, single replicates",108%
same,activity at 1 µM,"[4]; [uM] 1.00, single replicates",89%
same,activity at 1.3 µM,"[4]; [uM] 1.30 [sic], single replicates",59%
same,activity at 1.6 µM,"[4]; [uM] 1.60 as printed, single replicates",27%
same,activity at 0.1 µM,[4]; concentration 0.10 [uM] as printed,97%
same,activity at 0.4 µM,[4]; concentration 0.40 [uM] as printed,102%
same,activity at 0.7 µM,[4]; concentration 0.70 [uM] as printed,108%
same,activity at 1 µM,[4]; concentration 1.00 [uM] as printed,89%
same,activity at 1.3 µM,[4]; concentration 1.30 [uM] as printed,59%
same,activity at 1.6 µM,[4]; concentration 1.60 [uM] as printed,27%
Cc1c(C(=O)N[C@H](C(=O)OC2CCOCC2)C(C)C)ccc2c1B(O)OC2 [AN15572],IC50,[1]; [8],11 nM
Cc1c(C(=O)NC(C(=O)OCC2CCOC2)C(C)C)ccc2c1B(O)OC2 (stereo not shown) [AN16109],Parasite proliferation index of footpads infected with tdTomato-expressing T. cruzi,[5],52.8 and 35.3 and 33.3 and 35.0 and 26.3 and 26.8 and -3.0 and 4.6 and 35.6 and 29.4
same,activity at 0.00407 µM,[1]; [11],75%
same,IC50,[1]; [12],6.6 nM
same,IC50,[1]; [13],6.6 nM
same,IC50,[1]; [8],5 nM
same,% of maximum,"[1]; WT, [uM] 0.00 as printed, single replicates",0%
same,% of maximum,"[1]; WT, [uM] -1.91 as printed, single replicates",13%
same,IC50,[3],2500 nM
same,IC50,[4],22.7 nM
same,Parasite equivalent/ 50 ng of DNA of skeletal muscle,"[6]; Fig. 3c, mice treated for 20 days",0.11 Parasite equivalent/ 50 ng of DNA and 0.27 Parasite equivalent/ 50 ng of DNA and 0.0541 Parasite equivalent/ 50 ng of DNA and 0.0079 Parasite equivalent/ 50 ng of DNA and 0.12 Parasite equivalent/ 50 ng of DNA and 0.0367 Parasite equivalent/ 50 ng of DNA
same,Parasite equivalent/ 50 ng of DNA of skeletal muscle,"[6]; Fig. 3e, mice treated for 40 days with 2.5 mg/kg, 2.5 mg/kg",0.223 Parasite equivalent/ 50 ng of DNA and 0.2345 Parasite equivalent/ 50 ng of DNA and 0.468 Parasite equivalent/ 50 ng of DNA and 0.01907 Parasite equivalent/ 50 ng of DNA and 0.1637 Parasite equivalent/ 50 ng of DNA and 1.455 Parasite equivalent/ 50 ng of DNA and 0.04407 Parasite equivalent/ 50 ng of DNA and 0.06524 Parasite equivalent/ 50 ng of DNA
O=C(Cn1ccnc1[N+](=O)[O-])NCc1ccccc1 [BNZ],Parasite proliferation index of footpads infected with tdTomato-expressing T. cruzi,[5],23.6 and 6.5 and 46.7 and 1.3 and 29.6 and 25.1 and 51.0 and 55.7 and -21.7 and -21.2
CC[C@@H]([C@H](C)O)n1ncn(-c2ccc(N3CCN(c4ccc(OC[C@@H]5CO[C@@](Cn6cncn6)(c6ccc(F)cc6F)C5)cc4)CC3)cc2)c1=O [posaconazole],failures in treatment trial,[7],100%
